The subject of series [1] is Dengue Virus (Type 2 New Guinea C). Nature of the series: Dose response assay, DENV infection of Huh-7.5 cells, DENV envelope protein immunostaining, high-content imaging. It is filed as cell-based. Conditions: MOI 0.5, 48 h post-infection; for IC50: read-out: IC50 of the anti-viral activity, DENV. The procedure: Huh-7.5 cells (3×10^4 per well) were seeded in black 96-well optical-bottom plates [Nunc] in full growth medium one day prior to infection. After washing with PBS, 40 μl assay medium (5% FBS) was added to cells containing either Laby A1, Laby A2 (final conc. 50, 16.7, 5.56, 1.85, 0.62, 0.21, 0.069 μg/ml) or a combination of Laby A1 and Laby A2 (25, 8.3, 2.8, 0.93, 0.31, 0.10, 0.034 μg/ml each). Treatments were run in doublets. PBS served as a control. After 30 min of incubation, cells were infected with Dengue Virus (Type 2 New Guinea C) at an MOI of 0.5 to give a final volume of 60 μl/well. After 2 h incubation at room temperature cells were washed with PBS and 100 μl assay medium was added per well. Infected cells were incubated for another 48 h. Hereafter media were removed from the wells and cells were fixed with 4% PFA. Fixed cells were washed extensively with PBS and permeabilized with 0.25% TritonX-100 for 5 min. After blocking with 5% FB in PBS primary antibody was applied (Anti-Dengue Virus E glycoprotein antibody [DE1] (ab41349) [Abcam], 1:100 diluted in 5% FBS/PBS) for 2 h. After washing secondary antibody (Alexa Fluor® 488 Goat Anti-Mouse IgG (H+L) [Life Technologies], 1:1000 diluted in 5% FBS/PBS) was applied for 1 h. Finally, cells were stained with DAPI (500 ng/ml in PBS) for 5 min.
Fluorescent cells were analyzed by high-content imaging using the automated microscope ImageXpressMicro [Molecular Devices] and the MetaXpress-software. […] The number of total cells/site was determined by automatically counting DAPI-stained nuclei. The percentage of DENV-positive cells was calculated by automatically evaluating the number of Alexa Fluor 488-positive cells in relation to the total cell number. […] IC50-values were calculated by non-linear regression.
To determine a potential synergistic effect of Labyrinthopeptins A1 and A2 on DENV-infection a dose response assay was performed. […] The number of total cells as well as the percentage of Alexa Fluor 488-positive cells (=DENV positive cells) was determined by high-content fluorescence imaging.

The test system of series [2] is GFP-expressing CMV strain HT8-GFP (AD169). In words: Mode of action assay, pretreatment of CMV particles or NHDF cells. Conditions: LabyA1 3 μM, LabyA2 7 μM, PAA 180 μM. It is filed as cell-based, Human cytomegalovirus.
Series [3] deals with VSV glycoprotein-mediated cell entry (VSV-G-pseudotyped lentiviral particles). The settings on record: 48 h.
The test system of another series is TBEV (Toro isolate). Conditions: read-out: IC50 of the anti-viral activity, TBEV; Vero-B4 cells, MOI 0.01, 3 days, estimated by visual inspection.
In series [4] the test system is peripheral blood mononuclear cells (PBMCs). The settings on record: cited from earlier work.
The test system of another series is ZIKV (Strain MR766-NIID). The settings on record: read-out: IC50 of the anti-viral activity, ZIKV; Huh-7.5 cells, MOI 0.5, 48 h, genome copy equivalents.
For series [5], the system named is GFP-expressing CMV (HCMV) strain pHG-1 (HT8-GFP, AD169-based). The settings on record: read-out: IC50 of the anti-viral activity, CMV, NHDF cells, MOI 0.5, GFP at day 4 post infection.
Series [6] relates to CHIKV glycoprotein-mediated cell entry (CHIKV gp-pseudotyped lentiviral particles). The settings on record: CHIKV glycoprotein pseudotypes, 293T cells, 48 h.
A further series deals with HCV JcR2a. The settings on record: Huh 7.5 Fluc cells, Renilla luciferase after 48 h.
The test system of a further series is Huh 7.5 Fluc cells. In words: Cell viability (firefly luciferase) in the HCV assay.
A further series has as its system wild-type RSV (hRSV). Conditions: read-out: IC50 of the anti-viral activity, RSV; intracellular RSV-P staining, HEp 2 cells, MOI 1, 18 h post infection.
Series [7] concerns human respiratory syncytial virus (RSV). Conditions: read-out: IC50, inhibition of RSV induced cell death; FF-luc HEp-2 cells, MOI 3, 72 h, indirect assay.
Series [8] in a line: Cell-based HTS system for cytotoxic concentration (CC50), FF-luc HEp-2 cells. The settings on record: 72 h, concentrations up to 100 μM, read-out: half maximal cytotoxic concentration (CC50). On the procedure:
Cells (e.g. HEp-2 cells), which stably express the reporter gene of a firefly luciferase (FF-luc), may be seeded in a 96-well plate in media, e.g. in Gibco® Advanced MEM. After 72 h of incubation at 37° C. in the presence of increasing concentrations of the labyrinthopeptin, labyrinthopeptin derivative or combination to be tested (e.g. up to 100 μM), the cells may be lysed and the extinction of the FF-luc (RLU) may be measured. Therefore, a plate luminometer (Berthold) may be used. The number of surviving cells is […] proportional to residual luciferase expression.
A cell-based screening system was used to determine the cytotoxic concentration (CC50) of labyrinthopeptin A1 and A2.
1×10^4 HEp-2 cells, which are stably expressing the reporter gene of a firefly luciferase (FF-luc), were seeded in a 96-well plate in 200 μl appropriate media. After 72 h of incubation at 37° C. in the presence of increasing concentrations of labyrinthopeptin A1 or A2 up to 100 μM, the cells have been lysed in 35 μl lysis buffer and the extinction of the FF-luc (RLU) was measured using a plate luminometer (Berthold). The number of surviving cells is […] proportional to residual luciferase expression.

The next series deals with KSHV. Conditions: read-out: IC50 of the anti-viral activity, KSHV; HEK 293 cells, MOI 0.01, 48 h.

We go through three molecules from US11331371B2, “Labyrinthopeptins as anti-viral agents” (Helmholtz-Zentrum Für Infektionsforschung GMBH, priority 2015, dated 2022).

Each structure is given as a SMILES string. Like-named read-outs stand apart in the source and are kept apart here.

Take `C#CCCCC(=O)N[C@H]1C[C@]2(CSC[C@@H](C(=O)N[C@H]3CSSC[C@@H](C(=O)O)NC(=O)[C@@H]4CSC[C@]5(C[C@H](NC3=O)C(=O)N[C@@H]([C@@H](C)O)C(=O)NCC(=O)N5)C(=O)N[C@@H](CC(C)C)C(=O)N[C@@H](Cc3ccccc3)C(=O)N[C@@H](C)C(=O)N4)NC(=O)[C@H](CCC(=O)O)NC(=O)[C@H](Cc3c[nH]c4ccccc34)NC(=O)[C@H](CC(C)C)NC2=O)NC(=O)[C@H](Cc2c[nH]c3ccccc23)NC(=O)[C@H](CC(=O)O)NC1=O` [LabyA2-hexyn]: in series [1], the “IC50 of the anti-viral activity, DENV” value stood at 14.2 µg/mL and the IC50 was determined as 7030 nM.

Take `O=C(O)CP(=O)(O)O` [PAA, phosphonoacetic acid]: the “inhibition of viral gene expression (CMV), permanently treated, effective dose” value in series [2] (treatment throughout the infection cycle) is given as “exerted inhibition only when permanently present in the culture medium”. The “inhibition of viral gene expression (CMV), virus pretreated” value in series [2] (virus pretreated 1 h then diluted 16-fold) was “not when it was removed after pretreatment of the virus or cells”.

Consider `C/C=C1\NC(=O)[C@H](Cc2ccccc2)NC(=O)[C@@H]2CCCN2C(=O)[C@H](C(C)C)NC(=O)[C@H](Cc2c[nH]c3ccccc23)NC(=O)[C@]23CSC[C@H](NC1=O)C(=O)N[C@H](C(=O)O)CSSC[C@H](NC(=O)[C@@H]1CSC[C@]4(C[C@H](N)C(=O)N[C@@H](CC(N)=O)C(=O)N[C@@H](C)C(=O)N4)C(=O)N[C@@H](C(C)C)C(=O)N[C@@H](Cc4c[nH]c5ccccc45)C(=O)N[C@@H](CCC(=O)O)C(=O)N1)C(=O)N[C@@H](C2)C(=O)N[C@@H]([C@@H](C)O)C(=O)NCC(=O)N3` [LabyA1, Labyrinthopeptin A1], for which the IC50 in series [3] was 1100 to 3700 nM; with TBEV (Toro isolate), 24100 nM; in the series on ZIKV (Strain MR766-NIID), 2220 nM; in series [5], 1300 nM; in series [5] (listed as Labyrinthopeptin A1), roughly 1300 nM; in series [6] (read-out: IC50 of the anti-viral activity, CHIKV), 500 to 1700 nM. The IC50 with HCV JcR2a (read-out: IC50 of the anti-viral activity, HCV (virus entry), 4 h inoculation) amounted to 1050 nM; in series [1], 1780 nM; in the series on wild-type RSV (hRSV), 390 nM; in series [7], 3870 nM; with KSHV, 2000 nM. Moreover, in [3], the “IC50 of the anti-viral activity, VSV” value was 2.3 to 7.7 µg/mL. The “inflammatory response in PBMCs” value in series [4] is “does not cause an inflammatory response”. Also, the “IC50 of the anti-viral activity, CHIKV” value in [6] is 1.0 to 3.5 µg/mL. Also, the IC90 with HCV JcR2a (read-out: IC90, inhibition of HCV virus entry) is 9160 nM. The “cytotoxicity at the tested concentrations in the HCV assay” value with Huh 7.5 Fluc cells is recorded as “No cytotoxicity was observed”. In [8], the CC50 worked out at 79700 nM.
